From patent US20250304643A1, “PEPTIDE DUAL AGONISTS OF GIPR AND GLP2R” (BAINAN BIOTECH APS, priority 2021, published 2025)

Columns and labels:
Format in all cases: cell-based
human GLP-1R = biological target: T1, human GLP-1R (Homo sapiens, UniProt P43220); assay: HitHunter cAMP assay in transiently transfected COS-7 cells, human GLP-1R; details: for Efficacy GLP-1R: Emax normalized to highest concentration of endogenous ligand, Table 3; for activation of hGLP-1R: fatty acid at C-terminal residue or position 16
T1 construct: host or cells: COS-7
T1 sequence (P43220 24-463): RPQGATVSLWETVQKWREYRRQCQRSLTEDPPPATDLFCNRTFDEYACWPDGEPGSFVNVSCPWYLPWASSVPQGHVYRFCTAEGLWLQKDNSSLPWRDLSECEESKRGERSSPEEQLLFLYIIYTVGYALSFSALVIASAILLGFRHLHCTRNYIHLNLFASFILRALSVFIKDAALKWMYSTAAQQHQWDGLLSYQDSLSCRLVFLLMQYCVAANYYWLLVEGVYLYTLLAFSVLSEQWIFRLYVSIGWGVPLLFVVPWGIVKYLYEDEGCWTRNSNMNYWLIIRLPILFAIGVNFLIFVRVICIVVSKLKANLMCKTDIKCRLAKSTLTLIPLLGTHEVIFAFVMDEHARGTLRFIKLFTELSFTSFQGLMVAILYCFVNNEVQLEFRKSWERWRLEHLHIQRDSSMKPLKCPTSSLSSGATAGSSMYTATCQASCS
Protocol: The next day the assay was initiated by washing with HEPES buffered saline (HBS) and followed by an incubation step with assay buffer (HBS added 1 mM isobutyl-1-methylxanthine (IBMX)) for 30 min at 37° C. The ligands were then added and incubated for an additional 30 min at 37° C. After ligand incubation, the HitHunter® CAMP assay (Eurofins DiscoverX, Fremont, […] USA) was carried out according to the manufacturer's instructions. Luminescence was measured by PerkinElmer™ EnVision 2014 Multilabel Reader (PerkinElmer, Waltham, MA). The potencies (EC50 values) were determined by nonlinear regression using GraphPad Prism 9 (San Diego, California, USA). Sigmoid curves were fitted logistically. The efficacies (Emax values) were determined by normalization to the highest concentration applied of the endogenous ligand for each receptor.

human GLP-2R = biological target: T2, human GLP-2R (Homo sapiens, UniProt O95838); assay: HitHunter cAMP assay in transiently transfected COS-7 cells, human GLP-2R; details: Emax normalized to highest concentration of endogenous ligand; Table 2;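 further: cells kept 30 min at 37 °C in buffer with 1 mM IBMX, then given ligand for another 30 min at 37 °C before cAMP readout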
T2 construct: host or cells: COS-7
T2 sequence (O95838 1-553): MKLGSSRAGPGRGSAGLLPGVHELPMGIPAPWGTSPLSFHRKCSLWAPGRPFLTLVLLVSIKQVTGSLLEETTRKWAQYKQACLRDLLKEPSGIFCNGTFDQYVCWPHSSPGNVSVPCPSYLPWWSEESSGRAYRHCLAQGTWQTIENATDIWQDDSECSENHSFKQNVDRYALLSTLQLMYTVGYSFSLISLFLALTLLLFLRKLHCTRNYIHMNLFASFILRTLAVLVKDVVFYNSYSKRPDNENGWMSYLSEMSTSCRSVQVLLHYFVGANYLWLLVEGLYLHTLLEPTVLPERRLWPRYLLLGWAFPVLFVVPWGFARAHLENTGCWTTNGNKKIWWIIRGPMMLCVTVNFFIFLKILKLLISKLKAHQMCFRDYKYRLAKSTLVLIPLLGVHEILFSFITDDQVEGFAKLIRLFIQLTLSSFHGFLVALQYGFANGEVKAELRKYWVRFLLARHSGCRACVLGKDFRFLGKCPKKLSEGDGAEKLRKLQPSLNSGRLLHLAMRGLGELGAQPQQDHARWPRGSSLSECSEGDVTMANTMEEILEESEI
Protocol: COS-7 cells were cultured at 10% CO2 and 37° C. in Dulbecco's Modified Eagle Medium (DMEM) 1885 supplemented with 10% fetal bovine serum (FBS), 2 mM glutamine, 180 units/ml penicillin, and 45 g/ml streptomycin.
The next day the assay was initiated by washing with HEPES buffered saline (HBS) and followed by an incubation step with assay buffer (HBS added 1 mM isobutyl-1-methylxanthine (IBMX)) for 30 min at 37° C. The ligands were then added and incubated for an additional 30 min at 37° C. After ligand incubation, the HitHunter® CAMP assay (Eurofins DiscoverX, Fremont, 150 USA) was carried out according to the manufacturer's instructions. Luminescence was measured by PerkinElmer™ EnVision 2014 Multilabel Reader (PerkinElmer, Waltham, MA). The potencies (EC50 values) were determined by nonlinear regression using GraphPad Prism 9 (San Diego, California, USA). Sigmoid curves were fitted logistically. The efficacies (Emax values) were determined by normalization to the highest concentration applied of the endogenous ligand for each receptor.

human GIPR = biological target: T3, human GIPR (Homo sapiens, UniProt P48546); design: host or cells: COS-7; details: Emax normalized to highest concentration of endogenous ligand; Table 2
T3 sequence (P48546 22-466): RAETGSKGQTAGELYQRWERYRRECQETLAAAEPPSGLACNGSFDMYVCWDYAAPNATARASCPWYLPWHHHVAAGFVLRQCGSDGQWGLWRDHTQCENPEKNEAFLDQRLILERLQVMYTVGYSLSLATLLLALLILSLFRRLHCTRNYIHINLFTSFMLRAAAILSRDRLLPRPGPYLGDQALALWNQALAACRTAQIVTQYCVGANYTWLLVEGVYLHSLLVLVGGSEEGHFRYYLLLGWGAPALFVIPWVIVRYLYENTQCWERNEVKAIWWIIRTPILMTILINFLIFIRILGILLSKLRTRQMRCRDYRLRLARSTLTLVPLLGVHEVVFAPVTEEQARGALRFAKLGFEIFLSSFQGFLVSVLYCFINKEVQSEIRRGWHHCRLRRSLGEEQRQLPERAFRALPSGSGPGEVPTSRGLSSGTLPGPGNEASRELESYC

## (C10-diacid)H-Aib-DGTFISDYST-Aib-LDNLAARDFINWLIQTKITK-OH [Compound no. 18]
Human GLP-1R
  Efficacy GLP-1R: 10
Human GLP-2R
  Efficacy GLP-2R: 90
Human GIPR
  Efficacy GIPR: 77

## (C16)H-Aib-DGTFISDYST-Aib-LDNLAARDFINWLIQTKITK-OH [Compound no. 5]
Human GLP-1R
  Efficacy GLP-1R: 6
Human GLP-2R
  Efficacy GLP-2R: 109
Human GIPR
  Efficacy GIPR: 111

## (C16)H-Aib-DGTFISDYSTILD-Aib-LAARDFINWLIQTKITK-OH [Compound no. 6]
Human GLP-1R
  Efficacy GLP-1R: 34
Human GLP-2R
  Efficacy GLP-2R: 91
Human GIPR
  Efficacy GIPR: 108

## (C16)H-Aib-DGTFISDYSTILDNLAARDFIEWLIQTKIT-OH [Compound no. 8]
Human GLP-1R
  Efficacy GLP-1R: 19
Human GLP-2R
  Efficacy GLP-2R: 106
Human GIPR
  Efficacy GIPR: 108

## (C16)H-Aib-DGTFISDYSTILDNLAARDFIEWLIQTKITK-OH [Compound no. 7]
Human GLP-1R
  Efficacy GLP-1R: 13
Human GLP-2R
  Efficacy GLP-2R: 101
Human GIPR
  Efficacy GIPR: 114

## (C16)HADGTFISDYSTILDAibLAARDFINWLIQTKITKNDWKHNITQ [Compound no. 16]
Human GLP-1R
  Efficacy GLP-1R: 2
Human GLP-2R
  Efficacy GLP-2R: 64
Human GIPR
  Efficacy GIPR: 99

## (C16)HADGTFISDYSTILDELAARDFINWLIQTKITKNDWKHNITQ [Compound no. 48]
Human GLP-2R
  Efficacy GLP-2R: 69
Human GIPR
  Efficacy GIPR: 112

## (C16)HADGTFISDYSTILDNLAAKDFINWLIQTKITK [Compound no. 45]
Human GLP-2R
  Efficacy GLP-2R: 59
Human GIPR
  Efficacy GIPR: 91

## (C16)HADGTFISDYSTILDNLAARDFIEWLIQTKITKNDWKHNITQ [Compound no. 50]
Human GLP-2R
  Efficacy GLP-2R: 70
Human GIPR
  Efficacy GIPR: 101

## (C16)HADGTFISDYSTILDNLAARDFINWLIATKITKNDWKHNITQ [Compound no. 52]
Human GLP-2R
  Efficacy GLP-2R: 68

## (C16)HADGTFISDYSTILDNLAARDFINWLIETKITKNDWKHNITQ [Compound no. 51]
Human GLP-2R
  Efficacy GLP-2R: 66
Human GIPR
  Efficacy GIPR: 104

## (C16)HADGTFISDYSTILDNLAARDFINWLIQTKIT [Compound no. 2]
Human GLP-2R
  Efficacy GLP-2R: 59
Human GIPR
  Efficacy GIPR: 80

## (C16)HADGTFISDYSTILDNLAARDFINWLIQTKITKAEWKHAITQ [Compound no. 49]
Human GLP-2R
  Efficacy GLP-2R: 92
Human GIPR
  Efficacy GIPR: 105

## (C16)HADGTFISDYSTILDNLAARDFINWLLAQKITK [Compound no. 46]
Human GLP-2R
  Efficacy GLP-2R: 82
Human GIPR
  Efficacy GIPR: 98

## (C16)HADGTFISDYSTILELLAARDFINWLIQTKITKNDWKHNITQ [Compound no. 15]
Human GLP-1R
  Efficacy GLP-1R: 0
Human GLP-2R
  Efficacy GLP-2R: 70
Human GIPR
  Efficacy GIPR: 106

## (C16-diacid)H-Aib-DGTFISDYST-Aib-LDALAARDFIEWLIQTKITK-OH [Compound no. 20]
Human GLP-2R
  Efficacy GLP-2R: 88
Human GIPR
  Efficacy GIPR: 93

## (C16-diacid)H-Aib-DGTFISDYST-Aib-LDKLAARDFIEWLIQTKITK-OH [Compound no. 22]
Human GLP-2R
  Efficacy GLP-2R: 95
Human GIPR
  Efficacy GIPR: 91

## (C16-diacid)H-Aib-DGTFISDYST-Aib-LDKLAARDFINWLIETKITK-OH [Compound no. 23]
Human GLP-2R
  Efficacy GLP-2R: 86
Human GIPR
  Efficacy GIPR: 107

## (C16-diacid)H-Aib-DGTFISDYST-Aib-LDNLAAKDFINWLIQTKITKNDWKHNITQ-OH [Compound no. 42]
Human GLP-2R
  Efficacy GLP-2R: 93

## (C16-diacid)H-Aib-DGTFISDYST-Aib-LDNLAARDFINWLIQTKITK-OH [Compound no. 17]
Human GLP-1R
  Efficacy GLP-1R: 5
Human GLP-2R
  Efficacy GLP-2R: 90
Human GIPR
  Efficacy GIPR: 98

## (C16-diacid)H-Aib-DGTFISDYST-Aib-LDNLAARDFINWLIQTKITKNDWKHNITQ-OH [Compound no. 40]
Human GLP-2R
  Efficacy GLP-2R: 96
Human GIPR
  Efficacy GIPR: 94

## (C16-diacid)H-Aib-EGTFISDYST-Aib-LDALAARDFINWLIQTKITKNDWKHNITQ-OH [Compound no. 41]
Human GLP-1R
  Efficacy GLP-1R: 14
Human GLP-2R
  Efficacy GLP-2R: 74
Human GIPR
  Efficacy GIPR: 91

## (C16-diacid)H-Aib-EGTFISDYST-Aib-LDKLAARDFINWLIQTKITK-OH [Compound no. 21]
Human GLP-1R
  Efficacy GLP-1R: 10
Human GLP-2R
  Efficacy GLP-2R: 58
Human GIPR
  Efficacy GIPR: 86

## (C16-diacid)H-Aib-EGTFISDYST-Aib-LDNLAAKDFINWLIQTKITKNDWKHNITQ-OH [Compound no. 43]
Human GLP-2R
  Efficacy GLP-2R: 73
Human GIPR
  Efficacy GIPR: 101

## (C16-diacid)H-Aib-EGTFISDYST-Aib-LDNLAARDFINWLIQTKITK-OH [Compound no. 19]
Human GLP-2R
  Efficacy GLP-2R: 81
Human GIPR
  Efficacy GIPR: 98

## (C16-diacid)HADGTFISDYSTAibLDNLAARDFINWLIQTKITKNDWKHNITQ [Compound no. 39]
Human GLP-2R
  Efficacy GLP-2R: 78
Human GIPR
  Efficacy GIPR: 99

## Ac-H-Aib-DGTFISDY-K(γGlu-C16)-T-Aib-LDNLAARDFINWLIQTKITK-OH [Compound no. 34]
Human GLP-2R
  Efficacy GLP-2R: 103
Human GIPR
  Efficacy GIPR: 75

## Ac-H-Aib-DGTFISDY-K(γGlu-C16)-T-Aib-LDNLAARDFINWLIQTKITKNDWKHNITQ-OH [Compound no. 38]
Human GLP-2R
  Efficacy GLP-2R: 89
Human GIPR
  Efficacy GIPR: 81

## H-Aib-DG-K(γGlu- γGlu-C10)-FISDYSTILDNLAARDFINWLIQTKITK-OH [Compound no. 26]
Human GLP-1R
  Efficacy GLP-1R: 14
Human GLP-2R
  Efficacy GLP-2R: 91
Human GIPR
  Efficacy GIPR: 80

## H-Aib-DG-K(γGlu- γGlu-C16)-FISDYST-Aib-LDNLAARDFINWLIQTKITK-OH [Compound no. 28]
Human GLP-1R
  Efficacy GLP-1R: 14
Human GLP-2R
  Efficacy GLP-2R: 99
Human GIPR
  Efficacy GIPR: 105

## H-Aib-DGTF-K(γGlu-C16)-SDYSTILDNLAARDFINWLIQTKITK-OH [Compound no. 10]
Human GLP-1R
  Efficacy GLP-1R: 10
Human GLP-2R
  Efficacy GLP-2R: 23
Human GIPR
  Efficacy GIPR: 102

## H-Aib-DGTFISDY-K(γGlu-C10)-T-Aib-LDNLAARDFINWLIQTKITD-OH [Compound no. 30]
Human GLP-1R
  Efficacy GLP-1R: 10
Human GLP-2R
  Efficacy GLP-2R: 81
Human GIPR
  Efficacy GIPR: 85

## H-Aib-DGTFISDY-K(γGlu-C16)-T-Aib-LDNLAARDFINWLIQTKITK-OH [Compound no. 29]
Human GLP-1R
  Efficacy GLP-1R: 0
Human GLP-2R
  Efficacy GLP-2R: 124
Human GIPR
  Efficacy GIPR: 104

## H-Aib-DGTFISDY-K(γGlu-C16)-TILDNLAARDFINWLIETKITK-OH [Compound no. 32]
Human GLP-2R
  Efficacy GLP-2R: 84
Human GIPR
  Efficacy GIPR: 89

## H-Aib-DGTFISDYS-K(γGlu-C16)-ILDNLAARDFINWLIQTKITK-OH [Compound no. 12]
Human GLP-1R
  Efficacy GLP-1R: 62
Human GLP-2R
  Efficacy GLP-2R: 79
Human GIPR
  Efficacy GIPR: 107

## HADGTFISDYSTAibLDK(γGlu-C18-diacid) LAARDFINWLIQTKGKK [Compound no. 62, reference compound]
Human GLP-1R
  activation of hGLP-1R: capable of activating hGLP-1R

## HADGTFISDYSTAibLDNLAARDFINWLIQTKGKKK(γGlu-C18-diacid) [Compound no. 61, reference compound]
Human GLP-1R
  activation of hGLP-1R: capable of activating hGLP-1R

## HADGTFISDYSTILDK(γGlu-C18-diacid) LAARDFINWLIQTKGKK [Compound no. 64, reference compound]
Human GLP-1R
  activation of hGLP-1R: capable of activating hGLP-1R

## HADGTFISDYSTILDNLAARDFINWLIQTKGKK(γGlu-C18-diacid) [Compound no. 60, reference compound]
Human GLP-1R
  activation of hGLP-1R: capable of activating hGLP-1R
